According to US20230055713A1, “COMPOSITION FOR STRENGTHENING SKIN BARRIER OR MOISTURIZING SKIN COMPRISING TILIANIN” (COSMAX NBT, INC., priority 2021, published 2023):

Tests used:
Assay type in all cases: in vivo
[1] = tested on: UVB-irradiated hairless mice; assay: Skin moisture content (Corneometer) on the dorsal skin of UVB-irradiated hairless mice; settings: T10 group: 10 mg/kg/week oral, 12 weeks
Experimental: (§1) Five-week-old female hairless mice (SKFI-1) were purchased from Orient Bio (Seongnam, Korea) as experimental animals. Diets of feed and water were freely given, and the animals were bred at the Yonsei Laboratory Animal Research Center (YLARC, Seoul, Korea) under conditions of 25° C. and 50 to 60% humidity for 12 hours. The hairless mice were randomly assigned to the following five groups: (i) a control group, (ii) a UVB-irradiated group (UVB), (iii) a UVB+100 mg/kg/day ARE-administered group (ARE100), (iv) a UVB+250 mg/Kg/day ARE-administered group (ARE250) and (v) UVB+10 mg/kg/week tilianin-administered group (T10). After one week of acclimatization, oral administrations of ARE and tilianin were performed daily for 12 weeks. […]
(§2) Before anesthetizing the hairless mice, the moisture content and the degree of transepidermal water loss (TEWL) were measured on the dorsal section of the hairless mice. Moisture content was measured using CORNEOMETER® 825 (CK Electronics GmbH) at a pressure of 1.1 to 1.5 N after contacting a probe to the skin surface. The TEWL which represents the amount of the evaporation of transepidermal water in the process of damage and recovery of a skin barrier was measured under conditions of 20 to 25° C. and 40 to 60% humidity using TEWAMETER® TM300 (CK Electronics GmbH) equipped with MULTI PROBE ADAPTER® MPA5 (CK Electronics GmbH).

[2] = tested on: UVB-irradiated hairless mice; assay: Transepidermal water loss (TEWL, Tewameter) on the dorsal skin of UVB-irradiated hairless mice; settings: ARE 100/250 mg/kg/day or tilianin 10 mg/kg/week oral, 12 weeks, vs UVB group
Experimental: as §1, §2

hyaluronic acid = assay: Hyaluronic acid concentration in skin homogenate (ELISA) of UVB-irradiated hairless mice; settings: UVB+T10 group: 10 mg/kg/week oral, 12 weeks
Experimental: as §1, with “weeks. In this case, the hairless mice belonging to the CON group and the UVB groups were orally administered with saline instead of the samples.” for “weeks.”
Specifically, the skin tissues of the hairless mice of each group in Example 2-1 were homogenized with NP40 lysis buffer (Elpis Biotech, Daejeon, Korea). The concentration of hyaluronic acid in the homogenate was determined using the hyaluronic acid quantikine ELISA Kit (R&D Systems, Minneapolis, Minn., USA) according to the manufacturer's protocol. Absorbance was read at 450 nm using the VERSAMAX™ variable microplate reader (Molecular Devices, Inc., Sunnyvale, Calif., USA).

HAS1 = HAS1 mRNA expression in skin tissue (RT-PCR) of UVB-irradiated hairless mice; settings: oral administration, 12 weeks, compared to the UVB-treated group
Experimental: as §1, with “weeks. In this case, the hairless mice belonging to the CON group and the UVB groups were orally administered with saline instead of the samples. The hairless mice of the remaining groups except the CON group were irradiated with UVB, and the UVB irradiation was carried out using UV crosslinker CL-1000M (UVP) toward the back 3 times per week.” for “weeks.”
(§3) Specifically, mRNA was isolated from the skin tissues of each group in Example 2-1 using RNAISO™ Plus (Takara). The mRNA was quantified using the NANODROP™ 1000 spectrophotometer (Thermo Fisher Scientific Inc.). […]

HAS2 = HAS2 mRNA expression in skin tissue (RT-PCR) of UVB-irradiated hairless mice; settings: oral administration, 12 weeks, compared to the UVB-treated group
Experimental: as §1, with “weeks. In this case, the hairless mice belonging to the CON group and the UVB groups were orally administered with saline instead of the samples. The hairless mice of the remaining groups except the CON group were irradiated with UVB, and the UVB irradiation was carried out using UV crosslinker CL-1000M (UVP) toward the back 3 times per week.” for “weeks.”
as §3

HAS3 = HAS3 mRNA expression in skin tissue (RT-PCR) of UVB-irradiated hairless mice; settings: oral administration, 12 weeks, compared to the UVB-treated group
Experimental: as §1, with “weeks. In this case, the hairless mice belonging to the CON group and the UVB groups were orally administered with saline instead of the samples. The hairless mice of the remaining groups except the CON group were irradiated with UVB, and the UVB irradiation was carried out using UV crosslinker CL-1000M (UVP) toward the back 3 times per week.” for “weeks.”
as §3

SMILES: COc1ccc(-c2cc(=O)c3c(O)cc(O[C@@H]4O[C@H](CO)[C@@H](O)[C@H](O)[C@H]4O)cc3o2)cc1 [tilianin]
- moisture content in the skin [1]: restored to normal levels
- TEWL (transepidermal water loss) [2]: decreased to a significant level
- content of hyaluronic acid, increase compared to the UVB-treated group (hyaluronic acid): 42.26%
- mRNA expression level of HAS1 (HAS1): significantly increased
- mRNA expression level of HAS2 (HAS2): significantly increased
- mRNA expression level of HAS3 (HAS3): significantly increased
